pIC50: −log10 of the molar value.
Assays:
[1] = Partition coefficient (logP); type: physicochemical; settings: octanol/water
[2] = target: T1, D(4) dopamine receptor (Homo sapiens, UniProt P21917); experiment: Compound was tested in vitro for its binding affinity towards human Dopamine receptor D4.2
T1 sequence (P21917 whole entry): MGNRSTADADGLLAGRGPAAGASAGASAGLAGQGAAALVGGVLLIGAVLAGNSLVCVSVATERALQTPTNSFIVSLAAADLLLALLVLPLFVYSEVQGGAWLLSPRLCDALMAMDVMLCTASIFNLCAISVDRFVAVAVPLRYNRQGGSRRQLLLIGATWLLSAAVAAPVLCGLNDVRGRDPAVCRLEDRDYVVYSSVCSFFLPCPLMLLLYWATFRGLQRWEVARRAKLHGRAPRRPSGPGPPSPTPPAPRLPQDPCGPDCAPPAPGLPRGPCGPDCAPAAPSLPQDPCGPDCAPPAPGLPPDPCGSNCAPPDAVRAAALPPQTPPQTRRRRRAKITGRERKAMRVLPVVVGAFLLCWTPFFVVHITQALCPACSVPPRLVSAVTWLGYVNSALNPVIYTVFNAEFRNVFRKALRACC

[3] = target: D(2) dopamine receptor (Homo sapiens, UniProt P14416); experiment: Compound was tested in vitro for its binding affinity towards human Dopamine receptor D2
D(2) dopamine receptor, sequence (P14416 whole entry): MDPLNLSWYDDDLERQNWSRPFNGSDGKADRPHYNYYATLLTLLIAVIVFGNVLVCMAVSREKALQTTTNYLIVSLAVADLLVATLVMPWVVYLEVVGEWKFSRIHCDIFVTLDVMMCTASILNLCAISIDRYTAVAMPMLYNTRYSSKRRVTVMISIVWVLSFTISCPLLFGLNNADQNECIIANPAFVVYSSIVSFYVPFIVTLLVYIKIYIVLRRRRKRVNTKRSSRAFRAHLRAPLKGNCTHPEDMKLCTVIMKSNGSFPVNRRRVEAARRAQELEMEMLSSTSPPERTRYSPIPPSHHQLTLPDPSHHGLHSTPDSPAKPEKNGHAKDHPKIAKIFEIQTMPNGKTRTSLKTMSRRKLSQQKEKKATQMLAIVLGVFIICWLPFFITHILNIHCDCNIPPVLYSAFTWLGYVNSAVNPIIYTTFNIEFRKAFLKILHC

[4] = target: D(3) dopamine receptor (Homo sapiens, UniProt P35462)
D(3) dopamine receptor, sequence (P35462 whole entry): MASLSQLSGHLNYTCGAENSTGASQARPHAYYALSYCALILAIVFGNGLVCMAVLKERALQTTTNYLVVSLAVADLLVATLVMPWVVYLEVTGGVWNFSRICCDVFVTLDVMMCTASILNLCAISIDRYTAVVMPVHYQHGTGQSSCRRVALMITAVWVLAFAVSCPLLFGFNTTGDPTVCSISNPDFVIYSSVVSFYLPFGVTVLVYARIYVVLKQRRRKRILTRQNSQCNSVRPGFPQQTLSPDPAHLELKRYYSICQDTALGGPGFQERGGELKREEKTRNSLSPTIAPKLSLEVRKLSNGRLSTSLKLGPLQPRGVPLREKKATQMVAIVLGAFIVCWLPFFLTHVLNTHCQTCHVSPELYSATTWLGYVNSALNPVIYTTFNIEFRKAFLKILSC
Description: Binding affinity towards human Dopamine receptor D3

[5] = target: 5-hydroxytryptamine receptor 2A (Rattus norvegicus, UniProt P14842); experiment: biochemical
5-hydroxytryptamine receptor 2A, sequence (P14842 whole entry): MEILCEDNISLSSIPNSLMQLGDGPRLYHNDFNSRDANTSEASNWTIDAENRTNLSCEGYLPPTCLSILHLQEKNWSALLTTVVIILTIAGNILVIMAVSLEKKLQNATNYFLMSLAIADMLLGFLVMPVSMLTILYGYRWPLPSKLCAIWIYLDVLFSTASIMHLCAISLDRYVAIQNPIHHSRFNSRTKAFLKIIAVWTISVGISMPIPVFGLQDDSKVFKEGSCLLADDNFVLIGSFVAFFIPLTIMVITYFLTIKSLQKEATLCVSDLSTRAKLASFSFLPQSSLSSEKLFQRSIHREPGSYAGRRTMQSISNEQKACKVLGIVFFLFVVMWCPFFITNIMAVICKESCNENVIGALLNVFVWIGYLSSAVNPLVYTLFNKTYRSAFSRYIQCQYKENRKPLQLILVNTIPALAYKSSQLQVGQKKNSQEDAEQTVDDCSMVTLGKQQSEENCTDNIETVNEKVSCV
Description: Binding affinity towards 5-hydroxytryptamine 2A receptor from rat frontal cortex using [3H]ketanserin as radioligand

[6] = target: T2, Adrenergic receptor alpha-1 (Rattus norvegicus, UniProt P15823+P23944+P43140); experiment: Binding affinity towards alpha-1 adrenergic receptor from rat brain membranes using [3H]prazosin as radioligand
T2 sequence (P15823 whole entry): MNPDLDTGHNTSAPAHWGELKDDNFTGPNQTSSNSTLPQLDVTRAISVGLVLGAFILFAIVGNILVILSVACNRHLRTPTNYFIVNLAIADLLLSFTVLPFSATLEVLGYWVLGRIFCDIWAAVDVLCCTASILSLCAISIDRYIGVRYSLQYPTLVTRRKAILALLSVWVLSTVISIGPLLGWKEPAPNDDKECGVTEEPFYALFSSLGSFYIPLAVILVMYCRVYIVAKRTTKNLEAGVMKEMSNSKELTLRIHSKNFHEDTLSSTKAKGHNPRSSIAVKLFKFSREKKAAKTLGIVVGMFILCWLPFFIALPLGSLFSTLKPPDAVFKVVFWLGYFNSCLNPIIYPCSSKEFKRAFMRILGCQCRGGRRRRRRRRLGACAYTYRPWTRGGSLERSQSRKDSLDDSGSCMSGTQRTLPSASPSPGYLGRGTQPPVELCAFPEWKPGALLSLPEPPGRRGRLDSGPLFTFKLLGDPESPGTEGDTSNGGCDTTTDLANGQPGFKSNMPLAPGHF
T2 sequence (P23944 whole entry): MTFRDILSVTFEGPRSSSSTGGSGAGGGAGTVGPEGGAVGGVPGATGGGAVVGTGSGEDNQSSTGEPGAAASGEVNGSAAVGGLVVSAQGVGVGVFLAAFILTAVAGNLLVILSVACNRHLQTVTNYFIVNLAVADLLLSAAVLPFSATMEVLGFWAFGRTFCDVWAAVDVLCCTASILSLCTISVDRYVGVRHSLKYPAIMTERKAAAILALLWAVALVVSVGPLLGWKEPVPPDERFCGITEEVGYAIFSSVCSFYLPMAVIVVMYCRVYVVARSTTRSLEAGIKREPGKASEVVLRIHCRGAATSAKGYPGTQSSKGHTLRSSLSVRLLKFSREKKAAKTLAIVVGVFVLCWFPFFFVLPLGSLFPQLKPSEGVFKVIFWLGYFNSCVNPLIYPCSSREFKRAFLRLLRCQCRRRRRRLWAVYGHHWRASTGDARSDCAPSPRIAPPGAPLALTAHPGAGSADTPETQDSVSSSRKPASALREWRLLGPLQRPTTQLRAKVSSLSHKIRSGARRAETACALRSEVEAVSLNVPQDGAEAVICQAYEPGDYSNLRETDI
T2 sequence (P43140 whole entry): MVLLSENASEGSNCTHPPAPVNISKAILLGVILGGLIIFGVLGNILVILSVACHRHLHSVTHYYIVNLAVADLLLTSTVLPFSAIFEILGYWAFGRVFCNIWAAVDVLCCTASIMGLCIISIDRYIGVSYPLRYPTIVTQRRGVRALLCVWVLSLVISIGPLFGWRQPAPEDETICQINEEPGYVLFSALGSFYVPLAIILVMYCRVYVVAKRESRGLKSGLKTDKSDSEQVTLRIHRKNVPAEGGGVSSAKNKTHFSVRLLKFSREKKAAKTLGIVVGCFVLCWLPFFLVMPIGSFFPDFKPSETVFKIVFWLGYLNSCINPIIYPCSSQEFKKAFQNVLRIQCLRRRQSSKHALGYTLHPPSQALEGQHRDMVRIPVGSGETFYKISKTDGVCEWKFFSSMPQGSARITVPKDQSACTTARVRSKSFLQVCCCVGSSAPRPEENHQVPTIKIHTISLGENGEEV

[7] = target: T3, 5-hydroxytryptamine receptor 2C (Rattus norvegicus, UniProt P08909)
T3 sequence (P08909 whole entry): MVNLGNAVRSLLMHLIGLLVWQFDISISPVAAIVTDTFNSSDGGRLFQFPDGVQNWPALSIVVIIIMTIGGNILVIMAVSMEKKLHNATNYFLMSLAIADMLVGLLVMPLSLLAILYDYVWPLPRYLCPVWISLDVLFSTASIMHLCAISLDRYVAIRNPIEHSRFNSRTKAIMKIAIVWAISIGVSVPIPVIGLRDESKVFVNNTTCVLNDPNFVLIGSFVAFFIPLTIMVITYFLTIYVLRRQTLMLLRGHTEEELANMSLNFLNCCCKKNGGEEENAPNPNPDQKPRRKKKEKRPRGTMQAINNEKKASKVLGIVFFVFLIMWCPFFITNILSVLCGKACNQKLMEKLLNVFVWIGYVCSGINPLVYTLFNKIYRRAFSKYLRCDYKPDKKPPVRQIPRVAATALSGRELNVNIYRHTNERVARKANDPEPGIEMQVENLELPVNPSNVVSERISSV
Description: Binding affinity towards 5-HT2C receptor from rat using [3H]mesulergine as radioligand

[8] = target: D(1A) dopamine receptor (Rattus norvegicus, UniProt P18901); experiment: biochemical
D(1A) dopamine receptor, sequence (P18901 whole entry): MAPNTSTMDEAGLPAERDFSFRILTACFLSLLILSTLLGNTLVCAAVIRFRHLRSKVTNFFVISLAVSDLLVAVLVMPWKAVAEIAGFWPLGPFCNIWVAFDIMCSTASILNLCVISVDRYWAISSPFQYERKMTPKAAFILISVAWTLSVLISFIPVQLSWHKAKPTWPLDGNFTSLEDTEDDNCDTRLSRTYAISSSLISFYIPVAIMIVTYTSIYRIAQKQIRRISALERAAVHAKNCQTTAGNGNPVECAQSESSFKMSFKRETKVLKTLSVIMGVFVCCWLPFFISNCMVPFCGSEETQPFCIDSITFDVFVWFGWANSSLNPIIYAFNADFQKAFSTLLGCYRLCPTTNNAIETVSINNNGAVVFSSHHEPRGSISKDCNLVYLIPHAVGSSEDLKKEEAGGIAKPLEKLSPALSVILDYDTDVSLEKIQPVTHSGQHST
Description: Binding affinity towards D1 CNS receptor of rat corpus striatum using [3H]SCH-23390 as radioligand

[9] = target: T1, D(4) dopamine receptor; experiment: Binding affinity towards human D4.2 receptor
[10] = target: Histamine H1 receptor (Rattus norvegicus, UniProt P31390); experiment: Binding affinity towards histamine H1 receptor from rat brain membranes using [3H]mepyramine as radioligand
Histamine H1 receptor, sequence (P31390 whole entry): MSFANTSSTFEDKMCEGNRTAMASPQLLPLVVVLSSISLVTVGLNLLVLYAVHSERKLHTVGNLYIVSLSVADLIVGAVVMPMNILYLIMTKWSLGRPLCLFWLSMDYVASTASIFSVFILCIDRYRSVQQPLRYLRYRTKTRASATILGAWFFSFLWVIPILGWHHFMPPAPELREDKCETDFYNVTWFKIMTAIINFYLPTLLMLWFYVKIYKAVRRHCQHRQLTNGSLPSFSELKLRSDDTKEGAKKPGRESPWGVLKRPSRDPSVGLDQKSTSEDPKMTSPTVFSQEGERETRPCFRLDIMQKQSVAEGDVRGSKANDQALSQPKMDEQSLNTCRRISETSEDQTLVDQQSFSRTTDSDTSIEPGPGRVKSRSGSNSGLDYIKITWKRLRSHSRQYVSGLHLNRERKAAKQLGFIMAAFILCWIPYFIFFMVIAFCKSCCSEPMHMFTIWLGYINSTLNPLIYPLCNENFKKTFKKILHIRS

[11] = system: Mus musculus; experiment: Inhibition of apomorphine induced climbing affects in mice by administering the compound perorally in mice; type: functional; settings: Mus musculus, po; read-out: ED50
[12] = system: Mus musculus; experiment: Inhibition of apomorphine induced climbing affects in mice by administering the compound subcutaneously in mice; type: functional; settings: sc
[13] = target: T4, Muscarinic acetylcholine receptor M1 (Homo sapiens, UniProt P11229); experiment: Inhibition of binding of 1.0 nM [3H]pirenzepine to cloned human Muscarinic acetylcholine receptor M1 expressed in membranes from CHO-K1 cells; type: cell-based
T4 sequence (P11229 whole entry): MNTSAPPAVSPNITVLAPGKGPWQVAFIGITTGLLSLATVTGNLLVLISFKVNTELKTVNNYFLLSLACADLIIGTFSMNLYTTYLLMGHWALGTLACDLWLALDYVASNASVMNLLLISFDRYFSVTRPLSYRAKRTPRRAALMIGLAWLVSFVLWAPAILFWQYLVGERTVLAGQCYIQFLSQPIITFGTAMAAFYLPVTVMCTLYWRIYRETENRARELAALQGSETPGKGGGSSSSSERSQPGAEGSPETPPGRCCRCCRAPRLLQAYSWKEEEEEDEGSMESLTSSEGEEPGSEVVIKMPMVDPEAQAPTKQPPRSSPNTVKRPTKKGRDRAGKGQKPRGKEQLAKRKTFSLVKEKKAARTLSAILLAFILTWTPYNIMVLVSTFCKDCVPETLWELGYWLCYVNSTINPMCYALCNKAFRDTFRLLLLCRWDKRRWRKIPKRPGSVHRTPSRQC

[14] = system: Rattus norvegicus; experiment: Compound is measured for inhibition of catalepsy in rat by peroral administration of compound; type: functional; settings: po
[15] = Therapeutic ratio by Peroral dose of administration (quotient ED50 catalepsy/ED50 climbing); type: ADME, organism-based; settings: in vivo, po; read-out: Therapeutic ratio
[16] = Delta ED50 value by peroral administration (ED50 catalepsy-ED50 Climbing); type: functional
[17] = organism: Rattus norvegicus; experiment: Ex vivo accumulation of L-DOPA was measured in striatum of rats
[18] = system: Rattus norvegicus; experiment: Catalepsy percent score in rat by peroral administration of 100 mg/Kg of compound
[19] = system: Rattus norvegicus; experiment: Inhibition of catalepsy in rat by subcutaneous administration of compound; type: functional; settings: sc
[20] = Delta ED50 value by Subcutaneous administration (ED50 catalepsy-ED50 Climbing); type: functional
[21] = in vivo; settings: sc
Description: Therapeutic ratio by Subcutaneous dose of administration (quotient ED50 catalepsy/ED50 climbing)

Structure (SMILES) | logP [1] | pIC50 [4] | pIC50 [5] | IC50 [6] | pIC50 [7] | pIC50 [8] | pIC50 [13] | further results
CN1CCN(C2=Nc3cc(OS(=O)(=O)C(F)(F)F)ccc3Nc3ccccc32)CC1 | 3.58 |  |  |  |  |  |  | 
CN1CCN(C2=Nc3cc(O)ccc3Nc3ccccc32)CC1 | 2.21 |  |  |  |  |  |  | 
CN1CCN(C2=Nc3cc(OS(C)(=O)=O)ccc3Nc3ccccc32)CC1 | 1.8 |  | 5.31 | 8700 nM | 5.13 | 4.66 | 7.42 | 

Second part, led by results:

logP [1] | pIC50 [4] | pIC50 [5] | IC50 [6] | pIC50 [7] | pIC50 [8] | pIC50 [13] | Structure (SMILES) | further results
1.98 | 6.46 | 6.64 |  |  |  |  | CN1CCN(C2=Nc3ccccc3Oc3ccc(OS(C)(=O)=O)cc32)CC1 | pIC50 [2]: < 6.00; pIC50 [3]: < 6.00
1.8 |  |  | 160 nM | 5.92 | 5.68 |  | CN1CCN(C2=Nc3ccccc3Nc3ccc(OS(C)(=O)=O)cc32)CC1 | 
2.21 |  |  |  |  |  |  | CN1CCN(C2=Nc3ccccc3Nc3ccc(O)cc32)CC1 | 
3.76 | 7.54 | 7.32 | 27 nM | 7.00 | 7.18 | 6.31 | CN1CCN(C2=Nc3ccccc3Oc3ccc(OS(=O)(=O)C(F)(F)F)cc32)CC1 | pIC50 [9]: 6.82; pIC50 [10]: 6.92; ED50 [11]: 1.3 mg/kg; ED50 [12]: 2.2 mg/kg; ED50 [14]: 28 mg/kg; selectivity ratio [15]: 21.5; Delta ED50 [16]: 26.7 mg/kg; ED50 [17]: 0.7 mg/kg; Catalepsy [18]: 32%
4.3 | 7.28 | 7.64 | 7.1 nM | 7.89 | 6.70 | 7.27 | CN1CCN(C2=Nc3cc(Cl)ccc3Nc3ccc(OS(=O)(=O)C(F)(F)F)cc32)CC1 | pIC50 [9]: 6.31; ED50 [12]: 8.2 mg/kg; ED50 [19]: > 50 mg/kg; Delta ED50 [20]: >41.8 mg/kg; selectivity ratio [21]: > 6.1

— ChEMBL document CHEMBL1132638, “New (sulfonyloxy)piperazinyldibenzazepines as potential atypical antipsychotics: chemistry and pharmacological evaluation” (J Med Chem, 1999)
